From US8338414B2, “Immunosuppressive agent and anti-tumor agent comprising heterocyclic compound as active ingredient” (Zenyaku Kogyo KabushikiKaisha, priority 2005, dated 2012)
Read-outs that look alike come from different tables or passages of the source.

Columns and labels:
[1] = Test for measuring blood level; format: in vivo; settings: mouse, serum; BDF1 male mice, 200 mg/kg oral, one hour after the administration
Description: A pharmacokinetic study was performed using 6 week-old BDF1 male mice. The test substances were mixed with hydroxylpropylcellulose (low-molecular weight form) [HPC(L)] in 2.5-fold of the drug weight, and dissolved in dichloromethane. The solvent was evaporated to dryness. To make the dosing formation, the residue was suspended in distilled water to prepare the drug level of 20 mg/mL. The test compounds were administered compulsorily and orally at a dose of 200 mg/kg to the mice that had been starved for 16 hours. One hour after the administration, blood was collected from the orbits of two mice to obtain serum. Internal standards solution and 1 ml of distilled water were added to 100 μL, of serum thus obtained, and then extracted with diethylether. The solvent was evaporated under vacuum, and the residue was resolved with eluent to provide samples for the HPLC measurement. HPLC was performed by using reversed-phase type column, and acetonitrile-phosphate buffer (pH 2.5) was used as the eluent. Using regression curves (Y=aX+b) obtained from the standards, the drug levels in the sample serum were calculated.

mouse spleen cells = assay: Proliferation inhibition assay for mouse spleen cells; format: cell-based; settings: 72 h, 3 days, Alamar Blue
How it was run: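 C57BL/6N female mouse spleen cells (2×10^6 cells/mL) stimulated with Con A (3 μg/mL), LPS (100 μg/mL) or anti-mouse IgM (100 μg/mL) alongside serially diluted compounds, 3 days at 37° C, 5% CO2. Alamar Blue added for a further day; fluorescence read at ex 530/em 590 nm.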

[2] = test system: human peripheral blood mononuclear cells; assay: Proliferation inhibition assay for human peripheral blood mononuclear cells; format: cell-based; settings: Homo sapiens, 72 h; PBMC, anti-CD3 and anti-CD28 antibody, 3 days, Alamar Blue
How it was run: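 PBMC from healthy donors (1×10^5 cells/mL) in RPMI 1640 with 10% FBS were stimulated with plate-bound anti-CD3 plus anti-CD28 (1 μg/mL). Serially diluted compounds were added and cells were cultured 3 days at 37 °C. Alamar Blue was then added for 1 day and fluorescence was read at ex 530/em 590 nm.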

[3] = test system: human peripheral blood mononuclear cells; assay: Activation inhibition assay for human peripheral blood mononuclear cells (CD40L, CD69 expression); format: cell-based; settings: PBMC, anti-CD3 + anti-CD28, 6 hours, flow cytometry
Description: In accordance with the method of Assay Example 2, PBMC (2×10^6 cells/mL) was isolated from human peripheral blood, suspended in RPMI 1640 medium (containing 10% fetal bovine serum, 10 mM HEPES, 1 mM pyruvic acid, and 4.5 g/L glucose), and seeded in wells of a 96 well plate at 0.225 mL per well. The test substances were added to respective wells, and then an anti-CD3 antibody (2 μg/mL) and an anti-CD28 antibody (1 μg/mL) were added. Then, after incubation under conditions of carbon dioxide 5% at a temperature 37° C. for 6 hours, the expressions of CD40L and CD69, activation markers, were analysed by flow cytometry. As a result, when the cells were stimulated by both an anti-CD3 antibody and an anti-CD28 antibody, CD40L was expressed on 14.4% of PBMC, which was also CD4 positive. However, the proportion of the cells which expressed CD40L decreased when the cells had been treated with test substances (Compound 4: 4.9%; Compound 20: 3.7%, Compound 24: 3.6%).

[4] = test system: Rabbit synoviocytes HIG-82; assay: Inhibition assay for proliferation of rabbit synoviocyte; format: cell-based; settings: Oryctolagus cuniculus, 72 h; HIG-82, 3 days, Alamar Blue
[5] = test system: allogeneic mixed lymphocyte reaction; assay: Allogeneic mixed lymphocyte reaction; format: cell-based, mouse; settings: Mus musculus, Lymphocyte; C57BL/6N spleen stimulator cells, BALB/c lymph node responder cells, 86 hours, BrdU
How it was run: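 Stimulators were C57BL/6N female spleen cells and responders BALB/c female peripheral lymph node mononuclear cells (mice 8-10 weeks old). Cells suspended at 2×10^6 cells/mL in RPMI 1640 with 10% FBS and antibiotics.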

Daudi cells = assay: Proliferation inhibitory activity on hematologic neoplasm cells, Daudi; format: cell-based; settings: Homo sapiens, Daudi, 72 h; 3 days, Alamar Blue
Jurkat cells = assay: Proliferation inhibitory activity on hematologic neoplasm cells, Jurkat; format: cell-based; settings: Homo sapiens, Jurkat, 72 h; 3 days, Alamar Blue
HL 60 cells = assay: Proliferation inhibitory activity on hematologic neoplasm cells, HL60; format: cell-based; settings: Homo sapiens, HL-60, 72 h; 3 days, Alamar Blue
THP-1 cells = assay: Proliferation inhibitory activity on hematologic neoplasm cells, THP-1; format: cell-based; settings: Homo sapiens, THP-1, 72 h; 3 days, Alamar Blue
U 937 cells = assay: Proliferation inhibitory activity on hematologic neoplasm cells, U937; format: cell-based; settings: Homo sapiens, U-937, 72 h; 3 days, Alamar Blue
fulminant hepatitis = assay: Fulminant hepatitis model (galactosamine and LPS); format: in vivo, mouse; settings: BALB/c mice, galactosamine 800 mg/kg and LPS 110 μg/kg i.p.
Description: BALB/c male mice (7 weeks old, purchased from Charles River Laboratories Japan Inc.) were used in the experiment. After having orally administered the test substances suspended in 5% HPC, galactosamine (800 mg/kg) and LPS (110 μg/kg) were intraperitoneally administered. Then, survival rates at 72 hours after administration were obtained.

[6] = Toxicologic test for single oral administration; settings: Sprague-Dawley (SD), rat, in vivo; SD male rats, single oral dose
[7] = test system: Salmonella typhimurium TA98, TA100, TA1535, TA1537 and Escherichia coli WP2uvrA; assay: Ames test; format: cell-based; settings: preincubation method, with or without S-9, up to 5000 μg/flat plate
Description: Using 5 strains of Salmonella typhimurium TA98, TA100, TA1535, TA1537 and Escherichia coli WP2uvrA, the test substances (Compound 4, Compound 19, Compound 22 and Compound 24) were tested for their mutagenesis according to a preincubation method.

[8] = test system: PC-3 prostate cancer cells; assay: Proliferation inhibitory activity on solid tumor cells, PC-3; format: cell-based; settings: 72 hours
Description: (§1) Used in the test were MCF-7 cells which were established from human breast cancer and were cultured routinely under the conditions of 37° C. and 5% CO2, in MEM medium supplemented with 10% fetal calf serum, 25 mM of HEPES and 0.1 mg/ml kanamycin. The MCF-7 cells in a logarithmic growth phase were treated with trypsin/EDTA to prepare single cell suspension adjusted to 4.0×10^4 cells/ml in MEM medium (supplemented with 10% fetal calf serum, 25 mM of HEPES and 0.1 mg/ml kanamycin). Test compounds were dissolved in DMSO and diluted with RPMI 1640 medium (supplemented with 10% fetal calf serum, 25 mM of HEPES and 0.1 mg/ml kanamycin) to a concentration of […] to 2.0×10^−9M.
(§2) The cell suspension was filled in a 96-wells microplate at a rate of 0.1 ml per well and was cultured for 24 hours so as to make the cells to adhere to the microplate. Then, it was added with 0.1 ml of the sample solution and cultured at 37° C. for 72 hours in 5% CO2.
(§3) 50% Growth inhibition concentrations (GI50 μM) were calculated from growth inhibitions at various sample concentrations.
(§4) In the foregoing, when the cells other than MCF-7 are used, instead of adding 10% fetal bovine serum, the following media were used, and the following single cell suspensions were prepared. • PC-3 prostate cancer cells: 10% fetal bovine serum in F12K medium, single cell suspension of 2×10^4 cells; • A549 lung cancer cells: 10% fetal bovine serum in DMEM medium, single cell suspension of 1.5×10^4 cells; • WiDr colon cancer cells: 10% fetal bovine serum in MEM medium, single cell suspension of 3×10^4 cells; • B16F10 melanoma cells: 10% fetal bovine serum in RPMI 1640 medium, single cell suspension of 1×10^4 cells;

B16F10 melanoma cells = assay: Proliferation inhibitory activity on solid tumor cells, B16F10; format: cell-based; settings: Mus musculus, B16-F10; 72 hours
Description: as §1, §2, §3, §4

WiDr colon cancer cells = assay: Proliferation inhibitory activity on solid tumor cells, WiDr; format: cell-based; settings: Homo sapiens, 72 hours
Description: as §1, §2, §3, §4

A549 lung cancer cells = assay: Proliferation inhibitory activity on solid tumor cells, A549; format: cell-based; settings: Homo sapiens, 72 hours
Description: as §1, §2, §3, §4

MCF-7 cells = assay: Proliferation inhibitory activity on solid tumor cells, MCF-7; format: cell-based; settings: Homo sapiens, MCF7; 72 hours
Description: as §1, §2, §3

[9] = LPS 100 μg/mL, read-out: Inhibition of LPS response
[10] = concanavalin A 3 μg/mL, read-out: Inhibition of Con A response

SMILES | concentration at 1 h [1] | melting point | IC50 (mouse spleen cells; [9]) | IC50 (mouse spleen cells; [10]) | IC50 [4] | IC50 (Daudi cells) | IC50 (Jurkat cells) | IC50 (THP-1 cells) | also measured
COc1cccc2c1nc(C(F)F)n2-c1nc(N2CCOCC2)cc(N2CCO[C@@H](C)[C@H]2C)n1 (relative stereo) [Compound 37, 2-(2-Difluoromethyl-4-methoxybenzimidazol-1-yl)-4-(cis-2,3-dimethylmorpholino)-6-morpholinopyrimidine] | 4760 ng/mL | 176 to 178 °C |  |  |  |  |  |  | 
COc1cccc2c1nc(C(F)F)n2-c1nc(N2CCOCC2)cc(N2C[C@@H](C)O[C@@H](C)C2)n1 [Compound 24, 2-(2-Difluoromethyl-4-methoxybenzimidazol-1-yl)-4-(cis-2,6-dimethylmorpholino)-6-morpholinopyrimidine] |  |  | 100 to 10000 nM | 100 to 10000 nM | 441 nM | 397 nM | 1450 nM | 859 nM | IC50 (mouse spleen cells; anti-mouse IgM antibody 100 μg/mL, read-out: Inhibition of Anti-IgM antibody response): 100 to 10000 nM; IC50 [2]: 471 nM; proportion of the cells which expressed CD40L ([3]; CD4 positive, 14.4% without test substance): 3.6%; proportion of CD4-positive cells which expressed CD69 ([3]; 28.8% without test substance): 17.7%; proportion of CD4-negative cells which expressed CD69 ([3]; 50.9% without test substance): 22.4%; IC50 [5]: 286 nM; IC50 (HL 60 cells): 823 nM; IC50 (U 937 cells): 2790 nM; Survival Rate after 72 Hours (fulminant hepatitis; 50 mg/kg oral): 33%; Survival Rate after 72 Hours (fulminant hepatitis; 100 mg/kg oral): 67%; LD50 [6]: 600 to 900 mg/kg; mutagenesis (colony number of reverse mutation) [7]: negative
CC(=O)N1CCN(c2nc(N3CCOCC3)nc(-n3c(C(F)F)nc4ccccc43)n2)CC1 [Compound 28, 4-(4-acetylpiperazin-1-yl)-2-(2-difluoromethylbenzimidazol-1-yl)-6-morpholino-1,3,5-triazine] | 16100 ng/mL | 223 °C | 1 to 100 nM | ≤ 1 nM | 1110 nM | 235 nM | 1800 nM | 496 nM | GI50 [8]: 270 nM; GI50 (B16F10 melanoma cells): 2660 nM; GI50 (WiDr colon cancer cells): 1270 nM; GI50 (A549 lung cancer cells): 830 nM; GI50 (MCF-7 cells): 1210 nM
COc1cccc2c1nc(C(F)F)n2-c1nc(N2CCOCC2)cc(N2CCOC(C)(C)C2)n1 [Compound 36, 2-(2-Difluoromethyl-4-methoxybenzimidazol-1-yl)-4-(2,2-dimethylmorpholino)-6-morpholinopyrimidine] | 7170 ng/mL | 166 to 168 °C |  |  |  |  |  |  | 
CCOc1cccc2c1nc(C(F)F)n2-c1nc(N2CCOCC2)cc(N2CCOC(C)(C)C2)n1 [Compound 38, 2-(2-Difluoromethyl-4-ethoxybenzimidazol-1-yl)-4-(2,2-dimethylmorpholino)-6-morpholinopyrimidine] | 5910 ng/mL | 114 to 116 °C |  |  |  |  |  |  | 
